Earlier results on one molecule are cited in patent US20200206380A1, “METHOD OF PRODUCING AND PROVIDING AN ANTIMICROBIAL AGENT THAT EXERTS AN EXTENDED RESIDUAL EFFECT” (Dabney Patents, L.L.C., priority 2018, published 2020).

This data set relates to bacteria. As to conditions: exposed for 20 seconds.

Read-outs that look alike come from different tables or passages of the source.

`OO` [hydrogen peroxide]: the “% of bacteria killed” value runs as follows: (hydrogen peroxide used alone) 30%; (in combination with radiation of 360 nm to 500 nm) at least 96%.
